Measurements as given in ChEMBL document CHEMBL1144527 (Bioorg Med Chem, 2007).

Legend:
[1] = biological target: T1, Prostaglandin G/H synthase 2 (Ovis aries, UniProt P79208); assay: Inhibition of ovine COX2 by enzyme immunoassay
T1 sequence (P79208 whole entry): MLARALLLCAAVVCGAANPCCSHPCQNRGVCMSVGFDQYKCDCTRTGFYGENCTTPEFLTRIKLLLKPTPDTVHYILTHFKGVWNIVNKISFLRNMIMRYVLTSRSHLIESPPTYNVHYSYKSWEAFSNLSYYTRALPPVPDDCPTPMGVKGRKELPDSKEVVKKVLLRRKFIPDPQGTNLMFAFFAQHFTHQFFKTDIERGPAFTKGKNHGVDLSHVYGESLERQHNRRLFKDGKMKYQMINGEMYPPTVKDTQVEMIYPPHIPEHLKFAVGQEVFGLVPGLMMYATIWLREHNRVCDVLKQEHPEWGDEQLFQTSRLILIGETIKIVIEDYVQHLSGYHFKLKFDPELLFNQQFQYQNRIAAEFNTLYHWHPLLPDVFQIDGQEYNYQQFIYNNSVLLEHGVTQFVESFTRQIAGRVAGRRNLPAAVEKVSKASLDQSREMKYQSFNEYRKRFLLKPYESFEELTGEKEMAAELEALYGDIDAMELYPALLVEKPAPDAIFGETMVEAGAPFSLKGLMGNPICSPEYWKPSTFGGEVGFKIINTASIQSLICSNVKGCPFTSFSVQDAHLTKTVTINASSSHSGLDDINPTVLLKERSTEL

[2] = organism: Ovis aries; assay: Selectivity index, ratio of IC50 for ovine COX1 to IC50 for ovine COX2
[3] = biological target: T2, Prostaglandin G/H synthase 1 (Ovis aries, UniProt P05979); assay: Inhibition of ovine COX1 by enzyme immunoassay
T2 sequence (P05979 whole entry): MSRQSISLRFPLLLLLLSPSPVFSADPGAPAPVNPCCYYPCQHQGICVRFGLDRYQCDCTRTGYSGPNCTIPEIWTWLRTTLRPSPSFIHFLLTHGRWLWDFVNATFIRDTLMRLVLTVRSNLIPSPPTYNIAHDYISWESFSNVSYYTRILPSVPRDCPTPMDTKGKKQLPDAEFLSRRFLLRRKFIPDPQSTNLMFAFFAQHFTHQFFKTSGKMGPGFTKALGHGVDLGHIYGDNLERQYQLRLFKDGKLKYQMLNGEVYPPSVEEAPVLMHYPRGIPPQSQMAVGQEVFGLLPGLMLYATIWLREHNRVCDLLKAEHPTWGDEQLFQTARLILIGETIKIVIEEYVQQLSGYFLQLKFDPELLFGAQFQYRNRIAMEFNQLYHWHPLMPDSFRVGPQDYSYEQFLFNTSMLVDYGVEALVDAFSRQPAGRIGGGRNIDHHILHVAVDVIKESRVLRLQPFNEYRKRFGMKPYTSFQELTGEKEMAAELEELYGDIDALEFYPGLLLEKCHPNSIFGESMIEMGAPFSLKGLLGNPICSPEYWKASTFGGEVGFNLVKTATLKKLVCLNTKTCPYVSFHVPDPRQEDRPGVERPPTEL

| IC50 [1] [µM] | COX1/COX2 IC50 selectivity index [2] | IC50 [3] [µM] | Structure (SMILES) |
| --- | --- | --- | --- |
| 0.9 | > 111 | > 100 | Cc1ccc(C2=C(c3ccc(NS(C)(=O)=O)cc3)COC2=O)cc1 |
| 0.8 | 39.4 | 31.5 | CS(=O)(=O)Nc1ccc(C2=C(c3ccc(Cl)cc3)C(=O)OC2)cc1 |
| 3.2 | 11.1 | 35.5 | CS(=O)(=O)Nc1ccc(C2=C(c3ccc(Br)cc3)C(=O)OC2)cc1 |
| 3.2 | 3.1 | 10 | CS(=O)(=O)Nc1ccc(C2=C(c3ccc(F)cc3)C(=O)OC2)cc1 |
| 31.5 | > 31 | > 100 | COc1ccc(C2=C(c3ccc(NS(C)(=O)=O)cc3)COC2=O)cc1 |
| 1.7 | 18.5 | 31.6 | CS(=O)(=O)Nc1ccc(C2=C(c3ccccc3)C(=O)OC2)cc1 |
